Reference: US8044204B2, “8-methoxy-9H-isothiazolo[5,4-b]quinoline-3,4-diones and related compounds as anti-infective agents” (Achillion Pharmaceuticals, Inc., priority 2005, dated 2011)

What was measured:
S. aureus ATCC 29213 = experiment: Minimum Inhibitory Concentration (MIC) assay, S. aureus; type: cell-based; settings: Staphylococcus aureus, ATCC29213; broth microdilution; read-out: MIC against S. Aureus
Protocol: (§1) The antimicrobial activity of the compounds of the invention may be evaluated by a number of methods, including the following visual minimum inhibitory concentration (MIC) assay. This assay determines the minimum concentration of compound required to inhibit growth of a bacterial strain.
(§2) Minimum Inhibitory Concentration (MIC) Assay
(§3) Whole-cell antibacterial activity is determined by broth microdilution using conditions recommended by the NCCLS (see National Committee for Clinical Laboratory Standards. 2001. Performance standards for antimicrobial susceptibility testing: 11th informational supplement. Vol. 21, no. 1, M100-S11. National Committee for Clinical Laboratory Standards, Wayne, Pa.). Test compounds are dissolved in DMSO and diluted 1:50 in Mueller-Hinton II broth (Becton-Dickinson) to produce a 256 μg/ml stock solution. In a 96-well microtiter plate, the compound solution is serially two-fold diluted in Mueller-Hinton II broth. After the compounds are diluted, a 50 μl aliquot of the test organism (˜1×10^6 cfu/mL) is added to each well of the microtiter plate. The final test concentrations ranges from 0.125-128 μg/mL. Inoculated plates are incubated in ambient air at 37° C. for 18 to 24 hours. The organisms selected for testing included laboratory strains S. aureus ATCC 29213 and E. coli ATCC 25922 (strains purchased from American Type Culture Collection, Manassas, Va.), S. aureus FQR700699, and Paeruginosa 27853. The minimum inhibitory concentration (MIC) is determined as the lowest concentration of compound that inhibited visible growth of the test organism.

E. coli ATCC 25922 = experiment: Minimum Inhibitory Concentration (MIC) assay, E. coli; type: cell-based; settings: Escherichia coli, ATCC25922; broth microdilution; read-out: MIC against E. coli
Protocol: as §1, §2, §3

| MIC (S. aureus ATCC 29213) | MIC (E. coli ATCC 25922) | Compound |
| --- | --- | --- |
| ≤ 1 µg/mL | ≤ 1 µg/mL | O=c1[nH]sc2c1c(=O)c1cc(F)c(N3CCN(CCN4CCCC4)CC3)cc1n2C1CC1 [Compound 30] |
| ≤ 1 µg/mL | – | COc1c(N2CC[C@@H](N)C2)ccc2c(=O)c3c(=O)[nH]sc3n(C3CC3)c12 [Compound 97, (R)-7-(3-amino-pyrrolidin-1-yl)-9-cyclopropyl-8-methoxyiso-thiazolo[5,4-b]quinoline-3,4(2H,9H)-dione] |
| ≤ 1 µg/mL | ≤ 1 µg/mL | CC(=O)N1CCN(c2cc3c(cc2F)c(=O)c2c(=O)[nH]sc2n3C2CC2)CC1 [Compound 44, 7-(4-acetyl-piperazin-1-yl)-9-cyclo-propyl-6-fluoroiso-thiazolo[5,4-b]quinoline-3,4(2H,9H)-dione] |
| ≤ 1 µg/mL | ≤ 1 µg/mL | CC1CN(c2cc3c(cc2F)c(=O)c2c(=O)[nH]sc2n3C2CC2)CCN1 (centres unmarked) [Compound 17, 9-cyclopropyl-6-fluoro-7-(3-methyl-piperazin-1-yl)isothia-zolo[5,4-b]quinoline-3,4(2H,9H)-dione] |
| ≤ 1 µg/mL | ≤ 1 µg/mL | CNC(C)(C)[C@@H]1CCN(c2ccc3c(=O)c4c(=O)[nH]sc4n(C4CC4)c3c2OC)C1 [Compound 79, (R)-9-cyclo-propyl-8-methoxy-7-(3-(2-(methyl-amino)propan-2-yl)pyrrolidin-1-yl)isothia-zolo[5,4-b]quinoline-3,4(2H,9H)-dione] |
| ≤ 1 µg/mL | ≤ 1 µg/mL | O=c1[nH]sc2c1c(=O)c1cc(F)c(N3CCC(O)CC3)cc1n2C1CC1 [Compound 41, 9-cyclopropyl-6-fluoro-7-(4-hydroxy-piperidin-1-yl)isothia-zolo[5,4-b]quinoline-3,4(2H,9H)-dione] |
| ≤ 1 µg/mL | – | COc1c(N2CC[C@@H](N)C2)c(F)cc2c(=O)c3c(=O)[nH]sc3n(C3CC3)c12 [Compound 96, (R)-7-(3-amino-pyrrolidin-1-yl)-9-cyclopropyl-6-fluoro-8-methoxyiso-thiazolo[5,4-b]quinoline-3,4(2H,9H)-dione] |
| ≤ 1 µg/mL | – | COc1c(N2CC[C@@H](CN)C2)ccc2c(=O)c3c(=O)[nH]sc3n(C3CC3)c12 [Compound 65, (S)-7-(3-(aminomethyl)-pyrrolidin-1-yl)-9-cyclopropyl-8-methoxyiso-thiazolo[5,4-b]quinoline-3,4(2H,9H)-dione] |
| ≤ 1 µg/mL | – | CC[C@H](NC)[C@@H]1CCN(c2c(F)cc3c(=O)c4c(=O)[nH]sc4n(C4CC4)c3c2OC)C1 [Compound 91, 9-cyclopropyl-6-fluoro-8-methoxy-7-((R)-3-((S)-1-(methylamino)-propyl)pyrrolidin-1-yl)isothia-zolo[5,4-b]quinoline-3,4(2H,9H)-dione] |
| ≤ 1 µg/mL | – | O=c1[nH]sc2c1c(=O)c1cc(F)c(N3CCCCC3)cc1n2C1CC1 [Compound 23, 9-cyclopropyl-6-fluoro-7-(piperidin-1-yl)isothia-zolo[5,4-b]quinoline-3,4(2H,9H)-dione] |
| ≤ 1 µg/mL | ≤ 1 µg/mL | CC(C)(C)OC(=O)N1CCN(c2cc3c(cc2F)c(=O)c2c(=O)[nH]sc2n3C2CC2)CC1 [Compound 26, tert-butyl 4-(9-cyclopropyl-6-fluoro-3,4-dioxo-2,3,4,9-tetrahydroiso-thiazolo[5,4-b]quinolin-7-yl)piperazine-1-carboxylate] |
| ≤ 1 µg/mL | ≤ 1 µg/mL | CN(C)C1CCN(c2cc3c(cc2F)c(=O)c2c(=O)[nH]sc2n3C2CC2)C1 (centres unmarked) [Compound 22, 9-cyclopropyl-7-(3-(dimethyl-amino)pyrrolidin-1-yl)-6-fluoroiso-thiazolo[5,4-b]quinoline-3,4(2H,9H)-dione] |
| ≤ 1 µg/mL | ≤ 1 µg/mL | CCn1c2cc(N3CCSCC3)c(F)cc2c(=O)c2c(=O)[nH]sc21 [Compound 37, 9-ethyl-6-fluoro-7-thiomorpho-linoiso-thiazolo[5,4-b]quinoline-3,4(2H,9H)-dione] |
| ≤ 1 µg/mL | ≤ 1 µg/mL | COc1c(N2CC(N)C2)c(F)cc2c(=O)c3c(=O)[nH]sc3n(C3CC3)c12 [Compound 105, 7-(3-amino-azetidin-1-yl)-9-cyclopropyl-6-fluoro-8-methoxyiso-thiazolo[5,4-b]quinoline-3,4(2H,9H)-dione] |
| ≤ 1 µg/mL | ≤ 1 µg/mL | O=c1[nH]sc2c1c(=O)c1cc(F)c(N3CCSCC3)cc1n2C1CC1 [Compound 28, 9-cyclopropyl-6-fluoro-7-thiomorpho-linoiso-thiazolo[5,4-b]quinoline-3,4(2H,9H)-dione] |
| ≤ 1 µg/mL | – | COc1c(N2CC[C@@H](C(C)NC3CCCC3)C2)c(F)cc2c(=O)c3c(=O)[nH]sc3n(C3CC3)c12 (stereo partly drawn) [Compound 113, (R)-7-(3-(1-(cyclopentyl-amino)ethyl)pyrrolidin-1-yl)-9-cyclopropyl-6-fluoro-8-methoxyiso-thiazolo[5,4-b]quinoline-3,4(2H,9H)-dione] |
| ≤ 1 µg/mL | ≤ 1 µg/mL | O=c1[nH]sc2c1c(=O)c1cc(F)c(N3CCC(O)C3)cc1n2C1CC1 (centres unmarked) [Compound 18, 9-cyclopropyl-6-fluoro-7-(3-hydroxy-pyrrolidin-1-yl)isothia-zolo[5,4-b]quinoline-3,4(2H,9H)-dione] |
| ≤ 1 µg/mL | – | COc1c(N2CC[C@H](C(C)(C)N)C2)ccc2c(=O)c3c(=O)[nH]sc3n(C3CC3)c12 [Compound 60, (S)-7-(3-(2-aminopropan-2-yl)pyrrolidin-1-yl)-9-cyclopropyl-8-methoxyiso-thiazolo[5,4-b]quinoline-3,4(2H,9H)-dione] |
| ≤ 1 µg/mL | ≤ 1 µg/mL | COc1cc2c(=O)c3c(=O)[nH]sc3n(C3CC3)c2c(F)c1N1CC[C@@H](C(C)(C)N)C1 [Compound 83, (R)-7-(3-(2-aminopropan-2-yl)pyrrolidin-1-yl)-9-cyclopropyl-8-fluoro-6-methoxyiso-thiazolo[5,4-b]quinoline-3,4(2H,9H)-dione] |
| ≤ 1 µg/mL | – | COc1c(N2CCC(N)(CO)C2)c(F)cc2c(=O)c3c(=O)[nH]sc3n(C3CC3)c12 (centres unmarked) [Compound 109, 7-(3-amino-3-(hydroxy-methyl)-pyrrolidin-1-yl)-9-cyclo-propyl-6-fluoro-8-methoxyiso-thiazolo[5,4-b]quinoline-3,4(2H,9H)-dione] |
| ≤ 1 µg/mL | ≤ 1 µg/mL | COc1c(N2C[C@H]3CCCN[C@H]3C2)ccc2c(=O)c3c(=O)[nH]sc3n(C3CC3)c12 [Compound 78, 9-cyclopropyl-8-methoxy-7-((4aR,7aR)octahydro-pyrrolo[3,4-b]pyridin-6-yl)isothia-zolo[5,4-b]quinoline-3,4(2H,9H)-dione] |
| ≤ 1 µg/mL | – | O=c1[nH]sc2c1c(=O)c1cc(F)c(N3CCCC3)cc1n2C1CC1 [Compound 24, 9-cyclopropyl-6-fluoro-7-(pyrrolidin-1-yl)isothia-zolo[5,4-b]quinoline-3,4(2H,9H)-dione] |
| ≤ 1 µg/mL | – | CN[C@@H]1CCN(c2c(F)cc3c(=O)c4c(=O)[nH]sc4n(C4CC4)c3c2OC)C1 [Compound 98, (R)-9-cyclo-propyl-6-fluoro-8-methoxy-7-(3-(methylamino)-pyrrolidin-1-yl)isothia-zolo[5,4-b]quinoline-3,4(2H,9H)-dione] |
| ≤ 1 µg/mL | – | COc1c(N2CC[C@@H]([C@@H](C)N)C2)ccc2c(=O)c3c(=O)[nH]sc3n(C3CC3)c12 [Compound 110, 7-((R)-3-((R)-1-aminoethyl)-pyrrolidin-1-yl)-9-cyclo-propyl-8-methoxyiso-thiazolo[5,4-b]quinoline-3,4(2H,9H)-dione] |
| ≤ 1 µg/mL | – | CN(C(=O)OC(C)(C)C)C1CCN(c2cc3c(cc2F)c(=O)c2c(=O)[nH]sc2n3C2CC2)C1 (centres unmarked) [Compound 25, tert-butyl 1-(9-cyclopropyl-6-fluoro-3,4-dioxo-2,3,4,9-tetrahydroiso-thiazolo[5,4-b]quinolin-7-yl)pyrrolidin-3-yl(methyl) carbamate] |
| ≤ 1 µg/mL | – | CN[C@@H]1CCN(c2ccc3c(=O)c4c(=O)[nH]sc4n(C4CC4)c3c2OC)C1 [Compound 99, (R)-9-cyclo-propyl-8-methoxy-7-(3-(methyl-amino)-pyrrolidin-1-yl)iso-thiazolo[5,4-b]quinoline-3,4(2H,9H)-dione] |

| Compound | MIC (S. aureus ATCC 29213) | MIC (E. coli ATCC 25922) |
| --- | --- | --- |
| COc1cc2c(=O)c3c(=O)[nH]sc3n(C3CC3)c2c(F)c1N1CCNCC1 [Compound 84, 9-cyclopropyl-8-fluoro-6-methoxy-7-(piperazin-1-yl)isothia-zolo[5,4-b]quinoline-3,4(2H,9H)-dione] | – | ≤ 1 µg/mL |
| COc1c(N2C[C@@H]3CCCN[C@@H]3C2)c(F)cc2c(=O)c3c(=O)[nH]sc3n(C3CC3)c12 [Compound 69, 9-cyclopropyl-6-fluoro-8-methoxy-7-((4aS,7aS)-octahydro-pyrrolo[3,4-b]pyridin-6-yl)isothia-zolo[5,4-b]quinoline-3,4(2H,9H)-dione] | ≤ 1 µg/mL | – |
| CCn1c2s[nH]c(=O)c2c(=O)c2cc(F)c(N3CCNCC3)c(OC)c21 [Compound 62, 9-ethyl-6-fluoro-8-methoxy-7-(piperazin-1-yl)isothia-zolo[5,4-b]quinoline-3,4(2H,9H)-dione] | ≤ 1 µg/mL | – |
| O=c1[nH]sc2c1c(=O)c1cc(F)c(N3CCNCC3)cc1n2C1CC1 [Compound 20, 9-cyclopropyl-6-fluoro-7-(piperazin-1-yl)isothia-zolo[5,4-b]quinoline-3,4(2H,9H)-dione] | ≤ 1 µg/mL | ≤ 1 µg/mL |
